Reference: patent US20240245057A1, “INSECTICIDAL COMPOSITION FOR AGRICULTURAL OR HORTICULTURAL USE AND METHOD OF CONTROLLING AGRICULTURAL OR HORTICULTURAL PEST” (SDS BIOTECH K.K, priority 2021, published 2024)
Counter-ions that a name gives are not always drawn. Like-named read-outs stand apart in the source and are kept apart here.

What was measured:
Type in all cases: in vivo
[1] = test system: 3rd instar larvae of Spodoptera litura; test: Test of efficacy against 3rd instar larvae of Spodoptera litura (dried Bt cultures mixed into artificial feed); details: for Measured insecticidal rate (%): agent alone, 2 μg/g Feed, 25° C., 5 days; for insecticidal efficacy against the 3rd instar larvae of Spodoptera litura (in words): alone, application concentration of 2 μg/g feed
Protocol: A suspension of dried Btk culture or dried Bta culture was prepared by adding distilled water to the dried Btk culture or dried Bta culture prepared in Preparation Example 1. This suspension was admixed with prumycin hydrochloride prepared in Production Example 1 or kanosamine hydrochloride (Sigma-Aldrich Japan, LLC) at the prescribed concentration to prepare a solution. The obtained solution was admixed with artificial feed (Insecta LFS (manufactured by Nosan Corporation)) as shown in Tables 1 to 6 so that the content of the dried Btk culture or Bta culture was 0.2 to 2 mg/g of the artificial feed and the content of prumycin hydrochloride or kanosamine hydrochloride was 2 μg/g of the artificial feed. The artificial feed containing the dried Btk culture or dried Bta culture mixed with prumycin hydrochloride or kanosamine hydrochloride was placed on a petri dish (90 mm in diameter and 15 mm in height), and ten 3rd instar larvae of Spodoptera litura reared in a rearing room at 25° C. were released into the petri dish (triplicate). Each petri dish was closed and kept at 25° C. for 5 days.
The number of dead insects was then macroscopically counted by observing the inside of the petri dish, and the (measured) insecticidal rate (%) of the number of dead insects to the total number of reared insects was determined.
In addition, the suspension of dried Btk culture alone, the suspension of dried Bta alone, prumycin hydrochloride alone, kanosamine hydrochloride alone, or a combination of prumycin hydrochloride and kanosamine hydrochloride was added to the artificial feed to achieve the application concentration per g of the artificial feed as shown in Tables 1 to 6. Except the above, ten 3rd instar larvae of Spodoptera litura were released into a petri dish (triplicate) and kept at 25° ° C. for 5 days, as in the above Example.
The inside of the petri dish was then observed and the (measured) insecticidal rate (%) was determined in the same way as in the above Example.
The expected theoretical insecticidal rate (%) when treated with the dried Btk culture or dried Bta culture mixed with prumycin hydrochloride or kanosamine hydrochloride was determined by Colby's calculation formula ([…]). […]
The presence or absence of synergistic effect was determined by comparing the theoretical and measured insecticidal rates (%) in the case of using the dried Btk culture or dried Bta culture in combination with prumycin hydrochloride or kanosamine hydrochloride.
Specifically, the case where the measured value was larger than the theoretical value was judged as “having a synergistic effect”, and the case where the measured value was equal to or smaller than the theoretical value was judged as “having no synergetic effect” with respect to the insecticidal rate (%).

[2] = test system: 3rd instar larvae of Spodoptera litura; details: for insecticidal efficacy against the 3rd instar larvae of Spodoptera litura (in words): hydrochloride alone; for Number of dead insects/Number of test insects: hydrochloride alone 10 μg/g Feed, insecticidal protein Absent, 5 days
Protocol: Each artificial feed containing or free of each substance thus obtained was placed on a petri dish (90 mm in diameter and 15 mm in height), and ten 3rd instar larva of Spodoptera litura reared in a rearing room at 25° C. were released into each petri dish (3 replicates). Each petri dish was closed and kept at 25° C. for 5 days.
After that, the number of dead insects was macroscopically counted by observing the inside of the petri dish. The LC50 values were calculated by the probit method, and the increase in insecticidal activity due to the addition of prumycin or kanosamine was calculated based on the same formula as in Test Example 4 above.

[3] = test system: 3rd instar larvae of Helicoverpa armigera; details: for insecticidal efficacy against the 3rd instar larvae of Helicoverpa armigera (in words): hydrochloride alone; for Number of dead insects/Number of test insects: 4 days
From the text: Each insecticidal protein solution obtained was admixed with prumycin hydrochloride prepared in Production Example 1 or kanosamine hydrochloride (Sigma-Aldrich Japan, LLC.) at a prescribed concentration to prepare a solution containing the insecticidal protein and prumycin hydrochloride or kanosamine hydrochloride. The obtained solution was admixed with artificial feed (Insecta LFS (manufactured by Nosan Corporation)) as shown in Tables 10 to 13 so that the content of each insecticidal protein was 0.063 to 8 μg/g of the artificial feed and the content of prumycin hydrochloride or kanosamine hydrochloride was 10 μg/g of the artificial feed. In this way, each artificial feed containing the insecticidal protein and prumycin hydrochloride or kanosamine hydrochloride was prepared. In addition, the above-described insecticidal protein solution, prumycin hydrochloride, or kanosamine hydrochloride alone was admixed with the artificial feed as shown in Tables 10 to 13 so that the content of each insecticidal protein was 0.063 to 8 μg/g of the artificial feed or the content of prumycin hydrochloride or kanosamine hydrochloride was […] of the artificial feed, respectively. In this way, each artificial feed containing the insecticidal protein, prumycin hydrochloride, or kanosamine hydrochloride alone was prepared. Each artificial feed containing or free of each substance thus obtained was placed on a petri dish (35 mm in diameter and 10 mm in height), and one 3rd instar larva of Helicoverpa armigera reared in a rearing room at 25° C. was released into each petri dish (10 replicates). Each petri dish was closed and kept at 25° ° C. for 4 days.
The number of dead insects was then macroscopically examined by observing the inside of each petri dish, and the LC50 value was calculated by the probit method. Next, based on the following equation, the ratio of the test plot without prumycin hydrochloride or kanosamine hydrochloride to the test plot with prumycin hydrochloride or kanosamine hydrochloride was calculated to determine the increase in insecticidal activity when prumycin hydrochloride or kanosamine hydrochloride was added.

[4] = hydrochloride alone 10 μg/g Feed, insecticidal protein Absent

Row | Compound | Measured insecticidal rate (%) [1] [%] | insecticidal efficacy against the 3rd instar larvae of Spodoptera litura (in words) [1] | insecticidal efficacy against the 3rd instar larvae of Spodoptera litura (in words) [2] | Number of dead insects/Number of test insects [2] | insecticidal efficacy against the 3rd instar larvae of Helicoverpa armigera (in words) [3] | Number of dead insects/Number of test insects [3, 4] | Number of dead insects/Number of test insects ([3]; insecticidal protein alone 0.063 μg/g Feed) | Number of dead insects/Number of test insects ([3]; insecticidal protein alone 0.125 μg/g Feed) | Number of dead insects/Number of test insects ([3]; insecticidal protein alone 0.25 μg/g Feed) | Number of dead insects/Number of test insects ([3]; insecticidal protein alone 0.5 μg/g Feed) | Number of dead insects/Number of test insects ([3]; insecticidal protein alone 1 μg/g Feed) | Number of dead insects/Number of test insects ([3]; insecticidal protein alone 2 μg/g Feed)
1 | N[C@H]1[C@H](O)[C@@H](CO)OC(O)[C@@H]1O (stereo partly drawn) [Kanosamine hydrochloride, 3-amino-3-deoxy-D-glucopyranose] | 0.0 | no insecticidal efficacy | no insecticidal efficacy | 0/10 | no insecticidal efficacy | 0/10 |  |  |  |  |  | 
2 | CC(N)C(=O)NC1COC(O)C(N)C1O [Prumycin hydrochloride, 4-N-D-alanyl-2,4-diamino-2,4-dideoxyarabinose] | 0.0 | no insecticidal efficacy | no insecticidal efficacy | 0/10 | no insecticidal efficacy | 0/10 |  |  |  |  |  | 
3 | Cry1A(c): Bacillus thuringiensis insecticidal protein expressed and purified in E. coli |  |  |  |  |  |  | 0/10 | 0/10 | 0/10 | 1/10 | 6/10 | 7/10
